In publication PMC12447391 (2025):

Tests used:
[1] = test system: Ref in Apta-gel (DNA, aptamer) CGACCGGTCTGGGGACCCTGTCTGGGTGTGTGGGTAGTAGGTCGTTTTTTCCGATTACAGCC; assay: OECT transient response, equilibrium titration; conditions: PBS, 21 °C; apparent; immobilised aptamer
[2] = test system: R5MPT (DNA, aptamer) CGGGCGACGGGGATTTTTGGTGCACTATGTGGTTCGTTCGGGGTGGGCTGCGTTCTCCATTCTGGTTTTTTCCGATTACAGCC; assay: CD; conditions: PBS, 25 °C; 1 μM aptamer, 1 μM cortisol; peaks shift
[3] = test system: R5MPT (DNA, aptamer) CGGGCGACGGGGATTTTTGGTGCACTATGTGGTTCGTTCGGGGTGGGCTGCGTTCTCCATTCTGGTTTTTTCCGATTACAGCC; assay: ITC; conditions: PBS, 25 °C
[4] = test system: Ref in Apta-gel (DNA, aptamer) CGACCGGTCTGGGGACCCTGTCTGGGTGTGTGGGTAGTAGGTCGTTTTTTCCGATTACAGCC; assay: nonfaradic EIS of Apta-gel; conditions: PBS; effective capacitance rises at 21 °C, falls at 35 °C
[5] = test system: Ref (DNA, aptamer) CGACCGGTCTGGGGACCCTGTCTGGGTGTGTGGGTAGTAGGTCGTTTTTTCCGATTACAGCC; assay: ITC; conditions: PBS, 25 °C
[6] = test system: R5MPT in Apta-gel (DNA, aptamer) CGGGCGACGGGGATTTTTGGTGCACTATGTGGTTCGTTCGGGGTGGGCTGCGTTCTCCATTCTGGTTTTTTCCGATTACAGCC; assay: OECT flow-cell kinetics (koff/kon); conditions: PBS, 25 °C; apparent; kon 201.4 M^-1 s^-1, koff 0.0067 s^-1; immobilised aptamer
[7] = test system: TESS.1_trimmed in Apta-gel (DNA, aptamer) ACGGGATGTCCGGGGTACGGTGGTTGCAGTTCGTTTTTTTCCGATTACAGCC; assay: OECT transient response, equilibrium titration; conditions: PBS, immobilised aptamer

KD [1] [µM]	binding [2]	KD [3] [µM]	binding [4]	KD [5] [µM]	KD [6] [µM]	KD, apparent [7] [µM]	SMILES
45.95	yes	10.2	yes	3.75	33	–	C[C@]12CCC(=O)C=C1CC[C@@H]1[C@@H]2[C@@H](O)C[C@@]2(C)[C@H]1CC[C@]2(O)C(=O)CO
–	–	–	–	–	–	0.303	C[C@]12CC[C@H]3[C@@H](CCC4=CC(=O)CC[C@@]43C)[C@@H]1CC[C@@H]2O
